According to US9938240B2, “Fluorinated derivatives of 3-hydroxypyridin-4-ones” (Apotex Technologies Inc., priority 2009, dated 2018):
Like-named read-outs stand apart in the source and are kept apart here. Values belong to the molecule of their own block, whether it stands above or below them.

Key:
[1] = Pharmacokinetics following oral administration to rats; type: in vivo, male Sprague Dawley rats; conditions: rat, oral 50 mg/kg in 0.5% CMC; for Brain AUC_D_obs / Brain Cmax_D / Plasma AUC_D_obs / Plasma Cmax_D: dose-normalized
Protocol: Adult male Sprague Dawley rats (275-325 g, Charles River Laboratories, Saint Constant, Quebec) were orally dosed with 50 mg/kg of test compound (Apo7323, Apo7433, Apo7435 or Apo7448) suspended in 0.5% carboxymethylcellulose (CMC) in water. For each test compound, samples were obtained from the plasma and brain of three animals per time point, at 0 (dosed with 0.5% CMC), 0.25, 0.5, 1, 2, 4, 8 and 12 h following administration. The concentration of the compound in rat plasma and brain samples was determined by HPLC-UV. Pharmacokinetic parameters were computed using the PKPlus Module in GastroPlus® ver. 8.0 (Simulations Plus Inc., Lancaster, Calif.). Calculation method: linear trapezoidal with linear interpolation.

[2] = tested on: human neuroblastoma MC-65 cells; assay: cells; conditions: for EC100 / minimal effective concentration: Homo sapiens, MC65, 48 h; for EC100: read-out: EC100 (maximum effective concentration); for minimal effective concentration: read-out: TH (threshold protective concentration); for CC2 (cytotoxic concentration): MC-65, cultured without tetracycline; for CC2 (cytotoxic concentration) / CC1 (cytotoxic concentration): viability below 80%; for CC1 (cytotoxic concentration): MC-65, presence of TET
Protocol: In this assay, human neuroblastoma cells (MC-65 cells) are genetically engineered to conditionally express amyloid β peptide (Aβ). The Aβ production is suppressed by tetracycline (TET+) presence in culture medium, and its production is activated when TET is withdrawn (TET−). The activation of Aβ production results in cell death “MC-65 suicide”.
Protective effect of compounds against edogenously produced amyloid beta (Aβ) was assessed in human neuroblastoma MC-65 cells. MC-65 cells have been stably transformed to conditionally express high levels of a partial amyloid precursor (AP) fusion protein (Bryce Sopher et al., Brain Res Mol Brain Res. 1994, 207-17.). This protein is further proteolitically processed in the cells to form a set of AP-derived Aβ peptides. […] Activity of the promoter is tightly regulated by the presence of the antibiotic tetracycline (TET) in the culture medium. In the presence of TET (TET+), the promoter is in the basal state and no amyloid beta peptide is synthesized. In the absence of TET (TET−) the promoter is in induced state, resulting in the accumulation of Aβ peptides in the cells, degenerative changes in cell morphology and decreased survival.
Transfected human neuroblastoma cells (MC-65) were cultured in DMEM (ATCC) supplemented with non-essential amino acids and 10% FBS (VWR) in the presence of TET (1 μg/mL). For the experiment, the cells were plated at 35,000 cells/cm^2 and grown for 1 day in the regular culture media prior to compound addition. On the day of the assay, culture supernatant was removed from the wells and cells were thoroughly washed once with the compound incubation matrix containing no FBS and no TET. MC-65 cells were treated with a test compound at pre-determined range of concentrations in a basal medium containing no FBS and in the absence or presence of 1 μg/mL TET for approximately 48 h. Cell viability was then measured using the MTT method.
For data analysis, cell viabilities relative to the control not treated with a test compound and maintained in the presence of TET were plotted against the compound concentration. […] Cytotoxicity of the test compound was assessed in the cells maintained in the presence of TET.

[3] = tested on: SH-SY5Y human neuroblastoma cells; conditions: for CC2 (cytotoxic concentration): H2O2-treated cells, viability below 80%; for CC1 (cytotoxic concentration): absence of H2O2, viability below 80%
Description: Hydrogen peroxide (H2O2) is a major ROS (reactive oxidative species), which causes oxidative stress, and can induce apoptosis in many different cell types. One of the CNS drug design strategies is to use compounds with antioxidant properties as a possible treatment of both acute and chronic neurodegenerative diseases (Kang et al. Bioorganic & Medicinal Chemistry Letters, 2004, 14, 2261-2264). This involves testing the compounds of this invention for their protective effect against oxidative stress-induced cell death in SH-SY5Y human neuroblastoma cells. SH-SY5Y human neuroblastoma cells were cultured in DMEM (ATCC)/F12 (Cellgro) with 10% FBS. The cells were plated at 30,000 cells/cm^2 and grown for 1 day in the regular culture media prior to compound addition. Cells were routinely treated with the test compound, at a pre-determined range of concentrations, in the presence or absence of 50 μM hydrogen peroxide in a basal medium containing no FBS for 16-22 h. Cell viability was then measured using the routine MTT method (Mosmann, T., Rapid Colorimetric Assay for Cellular Growth and Survival: Application to Proliferation and Cytotoxicity Assays”. J. Immunol. Meth. 1983, 65, 55-63).
For data analysis, cell viability relative to control not treated with either H2O2 or the test compound, was plotted against the compound concentration. […] Cytotoxicity of the test compound was assessed in the absence of hydrogen peroxide.

[4] = Cyclic voltammetry of iron complexes; type: physicochemical; conditions: for E1/2 vs. Ag/AgCl / E1/2 vs. NHE / ΔE / Eox / Ered: 0.1M aqueous NaCl; for E1/2 vs. Ag/AgCl / E1/2 vs. NHE / ΔE: pH 7.4; for Eox / Ered: pH 7.4, vs. Ag/AgCl; for redox potential E1/2 (vs. NHE): pH 7.4, as quoted
[5] = cited from earlier work
[6] = Benzoic acid hydroxylation assay; conditions: benzoic acid 1 mM, H2O2 6 mM, FeCl3 30 μM, chelator 30 μM, pH 7.4, up to 81 h
Description: Benzoic acid is a hydroxyl radical scavenger and reacts with hydroxyl radical to give 2-hydroxy, 3-hydroxy and 4-hydroxybenzoic acids. The benzoic acid hydroxylation assay is a chemical assay designed to detect damage caused by hydroxyl radical (Dean and Nicholson, Free Radical Research 1994, vol 20, 83-101). For example, deferiprone suppresses the formation of hydroxybenzoic acids in the presence of iron salts and hydrogen peroxide, while EDTA and iron salts allow such hydroxylation reactions to take place.
This screening assay involves the use of iron salt, benzoic acid, hydrogen peroxide and the chelator and measures the ability of the chelator to inhibit the formation of hydroxybenzoate as an indicator to prevent hydroxyl radical formation in living system.
Briefly, this procedure is based on the ability of hydroxyl radicals to hydroxylate benzoate to give 2-, 3- and 4-hydroxylated benzoic acid products. Benzoic acid (1 mM) is incubated over time up to 81 h at room temperature in the dark in 10 mM phosphate buffer (pH 7.4) with 6 mM hydrogen peroxide, ferric chloride (30 μM) and the Fe chelator (30 μM). HPLC is the method of choice used to monitor and quantify the amount of 2-, 3- and 4-hydroxylated products formed over time in the reaction mixture, and can be verified against authentic benzoic acid and its hydroxylated products via their respective retention times and areas under curve. In addition, several controls are used: (i) a control without added Fe stock solution and Fe chelator; (ii) a control without added Fe chelator; (iii) EDTA as positive control; and (iv) deferiprone as negative control. The Fe-EDTA system is a hydroxyl radical generator and is known to promote hydroxylation of benzoic acid.

[7] = Oral cassette dosing PK/BBB studies; type: in vivo, male Sprague-Dawley rats; conditions: oral cassette dosing
Protocol: In-vivo pharmacokinetic (PK) and blood brain barrier (BBB) studies were conducted in male Sprague-Dawley rats using cassette dosing via oral administration. […] No. 15, pp. 652-658.

[8] = Distribution coefficient determination, D7.4 (1-octanol / K2HPO4 buffer); type: physicochemical; conditions: 1-octanol / K2HPO4 buffer 50 mM pH 7.4
Protocol: K2HPO4 buffer (50 mM, pH=7.4) and 1-octanol were used as the aqueous phase and the organic phase, respectively. The K2HPO4 buffer and 1-octanol were mixed, and pre-saturated with each other before use.
In a typical experiment, an aqueous solution of Apo6995 (3-hydroxy-2-methyl-1-(2,2,2-trifluoroethyl)pyridin-4(1H)-one) was prepared by weighing out 3 mg of the compound into a 10-mL test-tube. It was then mixed with K2HPO4 buffer (2 mL) and sonicated for 30 minutes with frequent vortexing. The solution was then filtered through HPLC syringe filter (4 mm PVDF syringe filter 0.45 μM) to obtain the aqueous solution.
One mL of this aqueous solution was pipetted out into another 10-mL test-tube and mixed with 1 mL of 1-octanol. The mixture was then vortexed for 1 hour. The solution was centrifuged at 2000 rpm for 10 minutes. A small amount of the lower aqueous layer was carefully pipetted out and analyzed by HPLC to obtain the peak height (HF). The distribution coefficient, D7.4, was calculated using the following equation: D7.4=(HI−HF)/HF.

Molecule: Cc1[nH]cc(C(N2CCOCC2)C(F)(F)F)c(=O)c1O (centres unmarked) [Apo7433, 3-hydroxy-2-methyl-5-(2,2,2-trifluoro-1-morpholinoethyl)pyridin-4(1H)-one]
CL [1]: 62.7 mL/min/kg
Brain AUC_D_obs [1]: 0.039 kg·µg·h/mL/mg
Brain Cmax_D [1]: 0.400 kg·µg/mL/mg
Plasma AUC_D_obs [1]: 0.860 kg·µg·h/mL/mg
Plasma Cmax_D [1]: 0.396 kg·µg/mL/mg
EC100 [2]: 10 µM
minimal effective concentration [2]: 1 µM
CC2 (cytotoxic concentration) [2]: 40 µM
CC1 (cytotoxic concentration) [2]: 40 µM
CC2 (cytotoxic concentration) [3]: 320 µM
CC1 (cytotoxic concentration) [3]: 320 µM

E1/2 vs. Ag/AgCl [4]: −797 mV
E1/2 vs. NHE [4]: −577 mV
ΔE [4]: 89 mV
Eox [4]: −752 mV
Ered [4]: −841 mV
redox potential E1/2 (vs. NHE) [4]: −628 my
Molecule: Cc1c([O-])c(=O)ccn1C.Cc1c([O-])c(=O)ccn1C.Cc1c([O-])c(=O)ccn1C.[Fe+3] [Fe(L1)3]

Molecule: Fe-transferrin: iron bound to the blood protein transferrin
E1/2 vs. Ag/AgCl ([5]; background value): −720 my
E1/2 vs. NHE ([5]; background value): −500 my

E1/2 vs. Ag/AgCl [4]: −698 mV
E1/2 vs. NHE [4]: −478 mV
ΔE [4]: 112 mV
Eox [4]: −642 mV
Ered [4]: −754 mV
redox potential E1/2 (vs. NHE) [4]: −480 my
Molecule: CC(=O)N([O-])CCCCCNC(=O)CCC(=O)N([O-])CCCCCNC(=O)CCC(=O)N([O-])CCCCCN.[Fe+3] [FeDFO]
E1/2 literature value ([5]; versus Ag/AgCl, Crumbliss et al. 2003): −688 mV

Molecule: Cn1ccc(=O)c(O)c1C(N1CCOCC1)C(F)(F)F (centres unmarked) [Apo7448, 3-hydroxy-1-methyl-2-(2,2,2-trifluoro-1-morpholinoethyl)pyridin-4(1H)-one]
CL [1]: 52 mL/min/kg
Brain AUC_D_obs [1]: 0.486 kg·µg·h/mL/mg
Brain Cmax_D [1]: 0.178 kg·µg/mL/mg
Plasma AUC_D_obs [1]: 1.07 kg·µg·h/mL/mg
Plasma Cmax_D [1]: 0.334 kg·µg/mL/mg
EC100 [2]: 20 µM
minimal effective concentration [2]: 1 µM
CC2 (cytotoxic concentration) [2]: 40 µM
CC1 (cytotoxic concentration) [2]: 40 µM
CC2 (cytotoxic concentration) [3]: 320 µM
CC1 (cytotoxic concentration) [3]: 80 µM

Molecule: CN(C)c1c(O)c(=O)cc(CC(F)(F)F)n1C [Apo7077, 2-(dimethylamino)-3-hydroxy-1-methyl-6-(2,2,2-trifluoroethyl)pyridin-4(1H)-one]
EC100 [2]: 10 µM
minimal effective concentration [2]: 1 µM
CC2 (cytotoxic concentration) [2]: 80 µM
CC1 (cytotoxic concentration) [2]: 80 µM
hydroxylation of benzoic acid by Fe chelate [6]: do not promote the hydroxylation of benzoic acid

Molecule: CCc1c(O)c(=O)ccn1CC(F)(F)F [Apo7030, 2-ethyl-3-hydroxy-1-(2,2,2-trifluoroethyl)pyridin-4(1H)-one]
EC100 [2]: 20 µM
minimal effective concentration [2]: 1 µM
CC2 (cytotoxic concentration) [2]: 40 µM
CC1 (cytotoxic concentration) [2]: 40 µM
AUC brain* (cal.) ([7]; rats, normalized to 1 mg/kg, value marked (cal.)): 0.59 cal·µg·h/mL
Kp ([7]; rat, brain and plasma, male Sprague-Dawley rats, read-out: AUC brain/AUC plasma): 1
AUC ([7]; rat, plasma, male Sprague-Dawley rats, AUC normalized to 1 mg/kg dose): 590 ng·h/mL
CC2 (cytotoxic concentration) [3]: >640 µM
CC1 (cytotoxic concentration) [3]: 640 µM
D7.4 [8]: 5.93
logD ([8]; read-out: Log D7.4): 0.77
